# Assay results reported in patent US11090318B2, “Wound healing promoter” (NAHLS CORPORATION CO., LTD., priority 2017, dated 2021).
# Where a name gives a salt, the structure may show the parent alone.
# Tests used:
# [1] = system: Mouse fetus-derived fibroblasts; assay: Gene expression in fibroblasts with or without TGF-β (real-time PCR); format: cell-based; settings: for PDLIM2 gene expression: 10 μg/mL, FIG. 6
# Experimental: Mouse fetus-derived fibroblasts were spread or inoculated in a 10% FCS-containing Dulbecco's modified Eagle medium (DMEM) and cultured for 24 hours. The 10% FCS-containing DMEM was then removed, and a fresh DMEM devoid of FCS was added, followed by cultivation for further 24 hours. Next, the DMEM containing the cells was combined with Nahlsgen or D-AP6 obtained in Preparation Example 1 to a concentration of 10 μg/mL, cultured for 5 hours, further combined with TGF-β, and cultured for further 5 hours. After the cultivation, RNAs or proteins were recovered, and the quantities of MMP3, MMP9, MMP13, FGF, TGF-β, amphiregulin, PDLIM2, and hyaluronic acid (HSA2) were determined using the real-time PCR technique.
# [2] = system: domestic dog affected by conjunctivitis; assay: Eye drops in a domestic dog affected by conjunctivitis; format: in vivo; settings: antibiotic alone by instillation twice a day for one year or longer, before preparation (6)
# Experimental: The pharmaceutical preparation (6) was administered as drops to the eyes of a domestic dog affected by conjunctivitis, and 30 minutes later an antibiotic (cefmenoxime hydrochloride 0.5%) was administered as drops to the eyes. This process was repeated twice a day for 5 days.
# The domestic dog had suffered from signs of dry eye syndrome and often undergone conjunctivitis resulting from bacterial infection.
# [3] = 10 μg/mL together with TGF-β, compared with TGF-β alone
# [4] = substance added alone, Nahlsgen or D-AP6 10 μg/mL
molecule,measurement,setting,value
"N[C@H](CCCCP(=O)(O)O)C(=O)O [D-AP6, D-2-amino-6-phosphonohexanoic acid monohydrate]",expression of FGF,[1]; [3],significantly increased the expression levels as compared with the addition of TGF-β alone
same,expression of MMP3,[1]; [3],significantly increased the expression levels as compared with the addition of TGF-β alone
same,expression of MMP9,[1]; [3],significantly increased the expression levels as compared with the addition of TGF-β alone
same,expression of MMP13,[1]; [3],significantly increased the expression levels as compared with the addition of TGF-β alone
same,expression of TGF-β,[1]; [3],significantly increased the expression levels as compared with the addition of TGF-β alone
same,expression of amphiregulin,[1]; [3],significantly increased the expression levels as compared with the addition of TGF-β alone
same,expression of hyaluronic acid,[1]; [3],significantly increased the expression levels as compared with the addition of TGF-β alone
same,PDLIM2 gene expression,[1],reduced PDLIM2 gene expression
same,expression of FGF,[1]; [4],approximately no change in the expression levels
same,expression of MMP3,[1]; [4],approximately no change in the expression levels
same,expression of MMP9,[1]; [4],approximately no change in the expression levels
same,expression of MMP13,[1]; [4],approximately no change in the expression levels
same,expression of TGF-β,[1]; [4],approximately no change in the expression levels
same,expression of amphiregulin,[1]; [4],approximately no change in the expression levels
same,expression of hyaluronic acid,[1]; [4],approximately no change in the expression levels
COP(=O)(CCC(N)C(=O)O)Oc1cccc(CC(=O)O)c1 (centres unmarked) [Nahlsgen],expression of FGF,[1]; [3],significantly increased the expression levels as compared with the addition of TGF-β alone
same,expression of MMP3,[1]; [3],significantly increased the expression levels as compared with the addition of TGF-β alone
same,expression of MMP9,[1]; [3],significantly increased the expression levels as compared with the addition of TGF-β alone
same,expression of MMP13,[1]; [3],significantly increased the expression levels as compared with the addition of TGF-β alone
same,expression of TGF-β,[1]; [3],significantly increased the expression levels as compared with the addition of TGF-β alone
same,expression of amphiregulin,[1]; [3],significantly increased the expression levels as compared with the addition of TGF-β alone
same,expression of hyaluronic acid,[1]; [3],significantly increased the expression levels as compared with the addition of TGF-β alone
same,PDLIM2 gene expression,[1],reduced PDLIM2 gene expression
same,expression of FGF,[1]; [4],approximately no change in the expression levels
same,expression of MMP3,[1]; [4],approximately no change in the expression levels
same,expression of MMP9,[1]; [4],approximately no change in the expression levels
same,expression of MMP13,[1]; [4],approximately no change in the expression levels
same,expression of TGF-β,[1]; [4],approximately no change in the expression levels
same,expression of amphiregulin,[1]; [4],approximately no change in the expression levels
same,expression of hyaluronic acid,[1]; [4],approximately no change in the expression levels
"CO/N=C(\C(=O)N[C@@H]1C(=O)N2C(C(=O)O)=C(CSc3nnnn3C)CS[C@H]12)c1csc(N)n1 [antibiotic, cefmenoxime hydrochloride]",curative effects,[2],failed to enjoy curative effects
TGF-β [reference compound],expression of FGF,[1]; [4],increased the expression
same,expression of MMP3,[1]; [4],increased the expression
same,expression of MMP9,[1]; [4],increased the expression
same,expression of MMP13,[1]; [4],increased the expression
same,expression of TGF-β,[1]; [4],increased the expression
same,expression of amphiregulin,[1]; [4],increased the expression
same,expression of hyaluronic acid,[1]; [4],increased the expression
